Literature values, collected in patent US9987253B2, “Cannabinoid receptor antagonists/inverse agonists useful for treating metabolic disorders, including obesity and diabetes” (Jenrin Discovery, priority 2012, dated 2018).

Details: type 2 diabetes patients not treated with other anti-diabetic medications, six months, baseline 7.9

In the case of `Cc1c(C(=O)NN2CCCCC2)nn(-c2ccc(Cl)cc2Cl)c1-c1ccc(Cl)cc1` [rimonabant], the HbA1c levels lowered is listed as 0.8%.
